In patent US12516058B2, “Small-molecule compounds for controlling endosomal toll-like receptors and therapeutic agent for autoimmune diseases using same” (priority 2020, dated 2026):
Entries after “also recorded” stand apart in the source; their conditions may differ.

Assays:
[1] = target: T1, TLR7 (Mus musculus, UniProt P58681); test: TNF-α secretion ELISA after TLR7 agonist imiquimod (IMQ) in RAW 264.7 cells; type: cell-based; settings: SK21 to SK82 at 0.5 μM or 2 μM, Imiquimod 1 μg/ml
T1 construct: endogenous in cells; host or cells: RAW 264.7
T1 sequence (P58681 27-1050): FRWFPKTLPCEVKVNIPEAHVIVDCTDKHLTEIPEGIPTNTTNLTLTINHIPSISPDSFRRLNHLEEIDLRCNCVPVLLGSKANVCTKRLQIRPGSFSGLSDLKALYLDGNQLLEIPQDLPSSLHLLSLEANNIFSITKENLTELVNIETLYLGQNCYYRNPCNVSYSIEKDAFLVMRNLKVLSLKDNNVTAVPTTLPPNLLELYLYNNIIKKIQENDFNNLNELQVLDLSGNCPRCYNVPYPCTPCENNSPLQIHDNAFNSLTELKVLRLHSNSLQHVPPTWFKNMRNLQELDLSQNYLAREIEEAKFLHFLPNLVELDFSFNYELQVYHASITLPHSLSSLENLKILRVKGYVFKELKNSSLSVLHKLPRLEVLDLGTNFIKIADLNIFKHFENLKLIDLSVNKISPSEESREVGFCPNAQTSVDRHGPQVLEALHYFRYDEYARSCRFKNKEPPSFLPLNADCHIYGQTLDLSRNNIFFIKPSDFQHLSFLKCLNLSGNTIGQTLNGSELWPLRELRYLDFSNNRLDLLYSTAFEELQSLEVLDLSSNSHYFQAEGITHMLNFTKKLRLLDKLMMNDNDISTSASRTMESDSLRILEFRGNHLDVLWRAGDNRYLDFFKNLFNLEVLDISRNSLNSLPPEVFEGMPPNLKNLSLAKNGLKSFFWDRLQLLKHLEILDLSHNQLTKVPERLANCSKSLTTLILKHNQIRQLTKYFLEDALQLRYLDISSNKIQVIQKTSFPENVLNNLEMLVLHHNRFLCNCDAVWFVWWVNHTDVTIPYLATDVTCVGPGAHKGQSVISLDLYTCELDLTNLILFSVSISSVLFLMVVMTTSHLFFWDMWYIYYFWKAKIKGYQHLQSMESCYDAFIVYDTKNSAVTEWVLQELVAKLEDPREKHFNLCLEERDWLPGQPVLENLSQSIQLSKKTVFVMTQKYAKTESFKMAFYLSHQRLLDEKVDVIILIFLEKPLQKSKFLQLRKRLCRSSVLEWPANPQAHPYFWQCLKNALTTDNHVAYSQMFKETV
Experimental: (§1) In order to determine the inhibitory activities of the test-ligand, RAW 264.7 cells were pretreated with each candidate compound for 1 hour, then treated with Pam3CSK4 (synthetic triacyl lipopeptide; TLR1/2, Invitrogen), FSL-1 (synthetic diacyl lipoprotein, TLR2/6, 100 ng/ml), lipopolysaccharide (LPS, TLR4, Sigma Aldrich), imiquimod (IMQ, TLR7, Invitrogen), and ODN2395 (type C CpG repeat motif DNA oligo(5′-[…]-3), TLR9, Bioneer) ligand for 4 hours, and treated with poly I:C (I:C repeat motif double-stranded RNA, TLR3, Invitrogen) and TL8-506 (TLR8, Invitrogen) showing delayed reactivity for 24 hours. After activation of TLR, the supernatant was diluted in an appropriate ratio so as to measure within the standard dose range, transferred to a pre-coated 96-well assay plate, and then treated with mouse TNF-alpha secretion level in accordance with the manufacturer's instructions using a mouse-TNF-alpha ELISA-kit (Invitrogen).
(§2) In order to plot the concentration-dependent LC50 curves, treatment with the SK series ligands at different concentrations up to 200 μM (the highest concentration that could be treated within the level of 0.5% DMSO) was performed. Then, cell viability and toxicity response upon treatment with ligands were analyzed by MTT as described in Examples 1-3. Cell viability in each plot was normalized from negative control (100%; no treatment) to positive control (highest concentration of test-ligand), and LC50 was determined by non-linear regression (Graph Pad Prism 7.0). In order to plot the concentration-dependent IC50 curves, pre-treatment with the SK series ligands was performed at different concentrations up to 50 μM (twice the initial concentration). Cell responses mediated by TLR7 and TLR9 (levels of TNF-α secretion) were analyzed by ELISA as described in Examples 1-4. The cytokine level in each plot was normalized from negative control (non-treated) to positive control (treatment with ligand), and IC50 was determined by non-linear regression (Graph Pad Prism 7.0).
(§3) In order to select potential inhibitory molecules against TLR3/TLR7/TLR8/TLR9 activation, first, MTT (3-(4,5-dimethylthiazol-2-yl)-2,5-diphenyltetrazolium bromide) cell viability assay (FIG. 7) was performed upon treatment with a set of ligands from SK21 to SK82 at a concentration of 20 μM and the inhibitory activity thereof was evaluated by an ELISA assay to monitor the level of TNF-α secretion in RAW 264.7 cells. The experimental ligands from SK21 to SK82 were administered at 0.5 μM or 2 μM to the RAW 264.7 cells and stimulated with Imiquimod (TLR7, 1 μg/ml) and OND2395 (TLR9, 0.5 μM).

[2] = target: T2, TLR9 (Mus musculus, UniProt Q9EQU3); test: TNF-α secretion ELISA after TLR9 agonist ODN2395 in RAW 264.7 cells; type: cell-based; settings: SK21 to SK82 at 0.5 μM or 2 μM, ODN2395 0.5 μM
T2 construct: endogenous in cells; host or cells: RAW 264.7
T2 sequence (Q9EQU3 26-1032): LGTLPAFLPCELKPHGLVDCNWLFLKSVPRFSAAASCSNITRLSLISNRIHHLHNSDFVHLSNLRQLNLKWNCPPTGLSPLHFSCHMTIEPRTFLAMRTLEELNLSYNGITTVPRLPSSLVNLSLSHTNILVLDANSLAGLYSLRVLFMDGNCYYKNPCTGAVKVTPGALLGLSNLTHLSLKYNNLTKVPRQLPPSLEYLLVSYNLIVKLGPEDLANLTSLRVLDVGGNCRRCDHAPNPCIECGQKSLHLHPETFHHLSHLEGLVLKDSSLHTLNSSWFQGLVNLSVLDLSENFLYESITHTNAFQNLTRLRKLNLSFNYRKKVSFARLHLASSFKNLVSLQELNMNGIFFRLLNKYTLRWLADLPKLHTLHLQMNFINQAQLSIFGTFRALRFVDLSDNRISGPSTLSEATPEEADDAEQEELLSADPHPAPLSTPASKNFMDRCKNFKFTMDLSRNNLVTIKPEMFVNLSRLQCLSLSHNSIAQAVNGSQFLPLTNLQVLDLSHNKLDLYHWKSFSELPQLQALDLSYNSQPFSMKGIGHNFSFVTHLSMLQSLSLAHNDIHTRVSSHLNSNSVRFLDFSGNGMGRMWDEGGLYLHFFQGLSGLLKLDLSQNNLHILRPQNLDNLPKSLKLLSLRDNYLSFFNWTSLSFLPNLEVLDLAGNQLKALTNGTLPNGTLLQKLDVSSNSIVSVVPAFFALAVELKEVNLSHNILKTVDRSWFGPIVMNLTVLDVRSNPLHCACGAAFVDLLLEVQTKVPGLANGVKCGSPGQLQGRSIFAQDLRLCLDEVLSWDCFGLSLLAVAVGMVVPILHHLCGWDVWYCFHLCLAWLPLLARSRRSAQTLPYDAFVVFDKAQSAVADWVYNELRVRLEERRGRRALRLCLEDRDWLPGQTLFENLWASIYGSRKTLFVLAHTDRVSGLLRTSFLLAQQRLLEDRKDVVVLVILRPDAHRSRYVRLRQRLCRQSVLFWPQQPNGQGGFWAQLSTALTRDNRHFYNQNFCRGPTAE
Experimental: as §1, §2, §3

Row | inhibitory activity against TLR7 (level of TNF-α secretion) ([1]; listed as SK 74) | inhibitory activity against TLR9 (level of TNF-α secretion) ([2]; listed as SK 74) | SMILES | inhibitory activity against TLR7 (level of TNF-α secretion) [1] | inhibitory activity against TLR9 (level of TNF-α secretion) [2]
1 |  |  | CN(C)CCCn1c2ccc(C#N)cc2c2c(N)c3c(nc21)CCCC3 [SK62, 11-amino-6-(3-(dimethylamino)propyl)-2,3,4,6-tetrahydro-1H-indolo[2,3-b]quinolin-9-carbonitrile] | significant inhibitory activity; also recorded: significantly reduced | significant inhibitory activity; also recorded: significantly reduced
2 |  |  | CN(C)CCCn1c2ccc(C(F)(F)F)cc2c2c(N)c3c(nc21)CCCC3 [SK63, 6-(3-(dimethylamino)propyl)-9-(trifluoromethyl)-2,3,4,6-tetrahydro-1H-indolo[2,3-b]quinolin-11-amine] | significant inhibitory activity; also recorded: significantly reduced | significant inhibitory activity; also recorded: significantly reduced
3 |  |  | COc1ccc2c3c(N)c4c(nc3n(CCCN(C)C)c2c1)CCCC4 [SK65, 6-(3-(dimethylamino)propyl)-8-methoxy-2,3,4,6-tetrahydro-1H-indolo[2,3-b]quinolin-11-amine] | significant inhibitory activity; also recorded: significantly reduced | significant inhibitory activity; also recorded: significantly reduced
4 |  |  | CN(C)CCCn1c2ccc(OCc3ccccc3)cc2c2c(N)c3c(nc21)CCCC3 [SK69, 9-(benzyloxy)-6-(3-(dimethylamino)propyl)-2,3,4,6-tetrahydro-1H-indolo[2,3-b]quinolin-11-amine] | significant inhibitory activity; also recorded: significantly reduced | significant inhibitory activity; also recorded: significantly reduced
5 |  |  | CC(C)Oc1ccc2c(c1)c1c(N)c3c(nc1n2CCCN(C)C)CCCC3 [SK70, 6-(3-(dimethylamino)propyl)-9-isopropoxy-2,3,4,6-tetrahydro-1H-indolo[2,3-b]quinolin-11-amine] | significant inhibitory activity; also recorded: significantly reduced | significant inhibitory activity; also recorded: significantly reduced
6 |  |  | CN(C)CCCn1c2ccc(O)cc2c2c(N)c3c(nc21)CCCC3 [SK71, 11-amino-6-(3-(dimethylamino)propyl)-2,3,4,6-tetrahydro-1H-indolo[2,3-b]quinolin-9-ol] | significant inhibitory activity; also recorded: significantly reduced | significant inhibitory activity; also recorded: significantly reduced
7 |  |  | CN(C)CCCNc1c2c(nc3c1c1c4ccccc4ccc1n3CCCN(C)C)CCCC2 [SK72, N1-(7-(3-(dimethylamino)propyl)-9,10,11,12-tetrahydro-7H-benzo[4,5]indolo[2,3-b]quinolin-13-yl)-N3,N3-dimethylpropane-1,3-diamine] | significant inhibitory activity; also recorded: significantly reduced | significant inhibitory activity; also recorded: significantly reduced
8 | significant inhibitory activity | significant inhibitory activity | CN(C)CCCn1c2ccc3ccccc3c2c2c(N)c3c(nc21)CCCC3 [SK74, 7-(3-(dimethylamino)propyl)-9,10,11,12-tetrahydro-7H-benzo[4,5]indolo[2,3-b]quinolin-13-amine] | significantly reduced | significantly reduced
9 |  |  | CNCCCn1c(C)c(C)c2c(N)c3c(nc21)CCCCCC3 [SK75, 2,3-dimethyl-1-(3-(methylamino)propyl)-5,6,7,8,9,10-hexahydro-1H-cycloocta[b]pyrrolo[3,2-e]pyridin-4-amine] | significant inhibitory activity; also recorded: significantly reduced | significant inhibitory activity; also recorded: significantly reduced
10 |  |  | Cc1ccc2c3c(N)c4c(nc3n(CCCN(C)C)c2c1)CCCC4 [SK81, 6-(3-(dimethylamino)propyl)-8-methyl-2,3,4,6-tetrahydro-1H-indolo[2,3-b]quinolin-11-amine] | significant inhibitory activity; also recorded: significantly reduced | significant inhibitory activity; also recorded: significantly reduced
11 |  |  | CN(C)CCCn1c2cc(Cl)ccc2c2c(N)c3c(nc21)CCCC3 [SK82, 8-chloro-6-(3-(dimethylamino)propyl)-2,3,4,6-tetrahydro-1H-indolo[2,3-b]quinolin-11-amine] | significant inhibitory activity; also recorded: significantly reduced | significant inhibitory activity; also recorded: significantly reduced
